According to US12404285B2, “KRAS G12D proteolysis targeting chimeras” (PAQ Therapeutics Inc., priority 2022, dated 2025):

Target: T1, KRAS (G12D)-HiBit in AsPc-1-KRAS (G12D)-HiBit-KI cell (Homo sapiens, UniProt P01116, G12D)
T1 construct: host or cells: AsPc-1-KRAS (G12D)-HiBit-KI cells (knock-in line)
Assay: G12D HiBit assay
Format: cell-based
Details: 24 hours compound treatment, absolute DC50, read-out: Average PHA DC50
Procedure: Day 1. Prepared the culture medium for AsPc-1-KRAS (G12D)-HiBit-KI cell (Pharmaron) using RPMI 1640 medium (Gibco, 11875093) with 10% FBS (Gibco, 10099141C) and 1% Penicillin-Streptomycin Liquid (Solarbio, P1400). Cultivated cells in T-75 flasks in a cell culture incubator (Thermo, Model: 371) at 37° C., 5% CO2. Allowed cells to reach approximately 80% confluence before splitting. Rinsed cultivated cells in T-75 flasks with 5 mL PBS (Solarbio, P1020-500). Aspirated off PBS, added 1.5 mL trypsin (Invitrogen, #25300), and incubated at 37° C. for approximately 5 minutes or until the cells detached. Inactivated trypsin by adding excessive serum containing medium. Harvested the cells from flask into cell culture medium and counted the cell number. Seeded AsPc-1-KRAS (G12D)-HiBit-KI cell into 384-well plate (Corning, 3570) (cell density: 5×10^3 cells/well in 50 μL medium) in RPMI 1640 medium and incubated overnight at 37° C. and 5% CO2.
Day 2. Test compounds were dissolved at 0.3 mM in DMSO (Solarbio, D8371) as stock solution. Transferred 45 μL of stock solution to a 384-well plate (Labcyte, 001-14555). Performed 3-fold, 10-points dilution via transferring 15 μL compound into 30 μL DMSO by using TECAN liquid handler (TECAN, Freedom EVO200). The compound plates were spin at room temperature at 1,000 RPM for 1 minute (Eppendorf, 5810R). Transferred 50 nL of diluted compounds from compound source plate into the cell plate by Echo (Labcyte, 550) to achieve final concentrations of 300 nM, 100 nM, 33.3 nM, 11.1 nM, 3.7 nM, 1.23 nM, 0.41 nM, 0.14 nM, 0.046 nM and 0.015 nM, then mixed the cell plate on a plate shaker (Yoning, WZ-4) for 15 seconds at 900 rpm. After compound treatment for 24 hours, removed the plate from incubators and equilibrated at room temperature for 15 minutes. Prepared the HiBit reagent (Promega, N3040) by mixing 10 mL of Nano-Glo®-HiBiT Lytic Buffer with 200 μL of Nano-Glo®-HiBiT Lytic Substrate and 100 μL of LgBiT Protein. Added 20 μL of HiBit reagent into each well of the cell plate and spun the plates at room temperature at 1,000 RPM for 1 minute. Then shook the plates at 600 RPM at room temperature for 20 minutes using a plate shaker (Yoning, WZ-4), and read the luminescence by EnVision (PerkinElmer, 2105-0020).
The inhibition activity was calculated using the following formula: HiBit-G12D level (%)=100%×[Luminescence(Sample)/Mean of Luminescence (HC)] where HC (high control) is obtained from cells treated with 0.1% DMSO only.
Absolute DC50 was calculated by fitting the curve using GraphPad Prism v8.0.2 (analyis 263): Y=Bottom+(100−Bottom)/(1+10^(Log AbsoluteIC50−X)*HillSlope+log((100−Bottom)/(50−Bottom)−1)))
The data are reported in Table 3, wherein “+++”=DC50 less than 100 nM, “++”=DC50 greater than or equal to 100 nM and less than 300 nM; “+”=DC50 greater than or equal to 300 nM.

T1 sequence (P01116 1-188 isoform P01116-2 G12D): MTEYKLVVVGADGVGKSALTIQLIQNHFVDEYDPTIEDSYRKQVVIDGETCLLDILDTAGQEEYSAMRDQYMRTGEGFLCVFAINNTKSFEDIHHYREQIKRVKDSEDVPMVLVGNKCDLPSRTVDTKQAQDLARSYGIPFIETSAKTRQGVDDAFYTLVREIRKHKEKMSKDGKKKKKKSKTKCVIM

Compound	DC50 [nM]
CCc1c(F)ccc2cc(O)cc(-c3ncc4c(N5CCCC6(CCO6)C5)nc(OC[C@@]56CCCN5[C@H](COC(=O)N5CCC(OCCCc7cccc8c7n(C)c(=O)n8C7CCC(=O)NC7=O)CC5)CC6)nc4c3F)c12 (some centres unmarked) [Compound 34]	< 100
C#Cc1c(F)ccc2cc(O)cc(-c3ncc4c(N5CCCC6(CCO6)C5)nc(OC[C@@]56CCCN5[C@H](COC(=O)N5CCC(OCCCc7cccc8c7n(C)c(=O)n8C7CCC(=O)NC7=O)CC5)CC6)nc4c3F)c12 (some centres unmarked) [Compound 35]	< 100
C#Cc1c(F)ccc2cccc(-c3ncc4c(N5CCCC6(CCO6)C5)nc(OC[C@@]56CCCN5[C@H](COC(=O)N5CCC(OCCCc7cccc8c7n(C)c(=O)n8C7CCC(=O)NC7=O)CC5)CC6)nc4c3F)c12 (some centres unmarked) [Compound 36]	≥ 300
C#Cc1c(F)ccc2cccc(-c3ncc4c(N5CC6CCC(C5)N6)nc(OC[C@@]56CCCN5[C@H](COC(=O)N5CCC7(CC5)CN(CCCc5cccc8c5n(C)c(=O)n8C5CCC(=O)NC5=O)CCO7)CC6)nc4c3F)c12 (some centres unmarked) [Compound 40]	< 100
C#Cc1c(F)ccc2cccc(-c3ncc4c(N5CC6CCC(C5)N6)nc(OC[C@@]56CCCN5[C@H](COC(=O)N5CC(CN7CCN(c8ccc9c(c8)n(C)c(=O)n9C8CCC(=O)NC8=O)CC7)C5)CC6)nc4c3F)c12 (some centres unmarked) [Compound 42]	< 100
C#Cc1c(F)ccc2cccc(-c3ncc4c(N5CC6CCC(C5)N6)nc(OC[C@@]56CCCN5[C@H](COC(=O)N5CCC(CN7CCC(c8ccc9c(c8)n(C)c(=O)n9C8CCC(=O)NC8=O)CC7)CC5)CC6)nc4c3F)c12 (some centres unmarked) [Compound 44]	< 100

Continued, values first:

DC50 [nM]	Compound
100 to 300	C#Cc1c(F)ccc2cccc(-c3ncc4c(N5CC6CCC(C5)N6)nc(OC[C@@]56CCCN5[C@H](COC(=O)N5CCC(OCc7cccc8c7n(C)c(=O)n8C7CCC(=O)NC7=O)CC5)CC6)nc4c3F)c12 (stereo partly drawn) [Compound 37, [(3S,8S)-8-[[4-(3,8-Diazabicyclo[3.2.1]octan-3-yl)-7-(8-ethynyl-7-fluoro-1-naphthyl)-8-fluoro-pyrido[4,3-d]pyrimidin-2-yl]oxymethyl]-1,2,3,5,6,7-hexahydropyrrolizin-3-yl]methyl4-[[1-(2,6-dioxo-3-piperidyl)-3-methyl-2-oxo-benzimidazol-4-yl]methoxy]piperidine-1-carboxylate]
< 100	C#Cc1c(F)ccc2cccc(-c3ncc4c(N5CC6CCC(C5)N6)nc(OC[C@@]56CCCN5[C@H](COC(=O)N5CCC(CN7CCC(c8cccc9c8n(C)c(=O)n9C8CCC(=O)NC8=O)CC7)CC5)CC6)nc4c3F)c12 (stereo partly drawn) [Compound 38, [(3S,8S)-8-[[4-(3,8-Diazabicyclo[3.2.1]octan-3-yl)-7-(8-ethynyl-7-fluoro-1-naphthyl)-8-fluoro-pyrido[4,3-d]pyrimidin-2-yl]oxymethyl]-1,2,3,5,6,7-hexahydropyrrolizin-3-yl]methyl4-[[4-[1-(2,6-dioxo-3-piperidyl)-3-methyl-2-oxo-benzimidazol-4-yl]-1-piperidyl]methyl]piperidine-1-carboxylate]
≥ 300	C#Cc1c(F)ccc2cccc(-c3ncc4c(N5CC6CCC(C5)N6)nc(OC[C@@]56CCCN5[C@H](COC(=O)NCCCC(=O)N5CCC(c7cccc8c7n(C)c(=O)n8C7CCC(=O)NC7=O)CC5)CC6)nc4c3F)c12 (stereo partly drawn) [Compound 39, [(3S,8S)-8-[[4-(3,8-Diazabicyclo[3.2.1]octan-3-yl)-7-(8-ethynyl-7-fluoro-1-naphthyl)-8-fluoro-pyrido[4,3-d]pyrimidin-2-yl]oxymethyl]-1,2,3,5,6,7-hexahydropyrrolizin-3-yl]methyl N-[4-[4-[1-(2,6-dioxo-3-piperidyl)-3-methyl-2-oxo-benzimidazol-4-yl]-1-piperidyl]-4-oxo-butyl]carbamate]
≥ 300	C#Cc1c(F)ccc2cccc(-c3ncc4c(N5CC6CCC(C5)N6)nc(OC[C@@]56CCCN5[C@H](COC(=O)N5CCC(CCCCc7cccc8c7n(C)c(=O)n8C7CCC(=O)NC7=O)CC5)CC6)nc4c3F)c12 (some centres unmarked) [Compound 41]
≥ 300	C#Cc1c(F)ccc2cccc(-c3ncc4c(N5CC6CCC(C5)N6)nc(OC[C@@]56CCCN5[C@H](COC(=O)N5CCC(CCCCc7ccc8c(c7)n(C)c(=O)n8C7CCC(=O)NC7=O)CC5)CC6)nc4c3F)c12 (some centres unmarked) [Compound 43]
